The values below come from ChEMBL document CHEMBL1208786, “1-Methyl-1H-pyrrole-2-carbonitrile containing tetrahydronaphthalene derivatives as non-steroidal progesterone receptor antagonists” (Bioorg Med Chem Lett, 2010).

Activity calls are given as the source filed them. The calls are words filed in the database; no cut-off is given here.

The target in one assay is T1, Androgen receptor (Homo sapiens, UniProt P10275).
T1 sequence (P10275 whole entry): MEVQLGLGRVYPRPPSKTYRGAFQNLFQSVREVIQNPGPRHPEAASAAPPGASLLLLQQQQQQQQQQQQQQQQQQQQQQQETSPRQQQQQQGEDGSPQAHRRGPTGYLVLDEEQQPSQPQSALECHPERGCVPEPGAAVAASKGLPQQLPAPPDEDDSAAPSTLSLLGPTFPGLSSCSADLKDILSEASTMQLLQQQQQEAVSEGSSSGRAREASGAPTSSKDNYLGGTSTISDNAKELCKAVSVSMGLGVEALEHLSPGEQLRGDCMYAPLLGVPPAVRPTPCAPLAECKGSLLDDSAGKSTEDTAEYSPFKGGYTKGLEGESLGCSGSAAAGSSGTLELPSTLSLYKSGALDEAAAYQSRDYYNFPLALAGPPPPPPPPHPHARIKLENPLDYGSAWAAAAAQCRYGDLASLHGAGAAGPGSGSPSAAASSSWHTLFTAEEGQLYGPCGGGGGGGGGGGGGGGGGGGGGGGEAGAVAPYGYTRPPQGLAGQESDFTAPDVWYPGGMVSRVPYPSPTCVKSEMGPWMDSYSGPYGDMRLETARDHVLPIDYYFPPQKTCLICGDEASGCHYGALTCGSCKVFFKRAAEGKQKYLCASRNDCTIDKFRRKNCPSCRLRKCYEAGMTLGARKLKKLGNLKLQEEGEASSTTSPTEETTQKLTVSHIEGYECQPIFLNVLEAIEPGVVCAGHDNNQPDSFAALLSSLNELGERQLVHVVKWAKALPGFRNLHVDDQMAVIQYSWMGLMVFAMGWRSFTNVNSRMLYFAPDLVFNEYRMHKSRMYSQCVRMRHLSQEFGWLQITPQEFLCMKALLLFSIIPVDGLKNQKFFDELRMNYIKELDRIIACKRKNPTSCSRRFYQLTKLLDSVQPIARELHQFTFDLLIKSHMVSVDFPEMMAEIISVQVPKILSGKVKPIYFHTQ
As to the kind of experiment: Antagonist activity at androgen receptor ligand binding domain by two hybrid assay.
In turn, `Cn1c(C#N)ccc1-c1ccc(C(=O)C(C)(C)C)cc1` had a half-inhibitory concentration (IC50) of 100 nM.

With `Cn1c(C#N)ccc1-c1ccc(/C(=N\O)C(C)(C)C)cc1`, the 50% inhibitory concentration (IC50) worked out at 165 nM.

A further assay addresses T2, Mineralocorticoid receptor (Homo sapiens) (UniProt P08235).
T2 sequence (whole entry): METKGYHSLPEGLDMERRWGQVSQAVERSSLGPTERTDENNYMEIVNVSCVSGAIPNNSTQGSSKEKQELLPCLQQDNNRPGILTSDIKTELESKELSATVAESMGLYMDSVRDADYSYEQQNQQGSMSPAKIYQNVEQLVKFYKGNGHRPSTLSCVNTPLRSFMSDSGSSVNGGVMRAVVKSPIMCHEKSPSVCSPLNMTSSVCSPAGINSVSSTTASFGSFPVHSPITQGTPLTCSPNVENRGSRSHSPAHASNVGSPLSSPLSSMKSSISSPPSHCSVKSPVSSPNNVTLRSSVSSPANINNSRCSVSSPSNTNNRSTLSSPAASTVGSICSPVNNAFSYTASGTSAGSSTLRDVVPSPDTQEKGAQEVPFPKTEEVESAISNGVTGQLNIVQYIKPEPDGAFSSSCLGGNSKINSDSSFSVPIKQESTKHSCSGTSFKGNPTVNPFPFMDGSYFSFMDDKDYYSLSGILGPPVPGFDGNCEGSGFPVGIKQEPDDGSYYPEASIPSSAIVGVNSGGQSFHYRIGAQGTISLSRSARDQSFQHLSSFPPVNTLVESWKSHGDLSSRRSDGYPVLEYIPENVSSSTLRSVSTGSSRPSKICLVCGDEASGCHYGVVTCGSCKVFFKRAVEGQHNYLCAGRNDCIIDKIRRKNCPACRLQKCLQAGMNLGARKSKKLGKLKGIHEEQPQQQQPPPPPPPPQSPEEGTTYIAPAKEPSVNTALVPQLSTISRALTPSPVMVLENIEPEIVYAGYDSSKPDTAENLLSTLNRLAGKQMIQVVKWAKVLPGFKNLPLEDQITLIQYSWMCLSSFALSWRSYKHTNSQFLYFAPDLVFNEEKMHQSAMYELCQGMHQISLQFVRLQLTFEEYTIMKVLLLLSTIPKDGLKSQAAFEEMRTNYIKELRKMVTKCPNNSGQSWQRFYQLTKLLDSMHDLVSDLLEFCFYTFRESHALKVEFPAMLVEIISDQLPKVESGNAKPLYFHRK
Nature of the assay: Antagonist activity at mineralocorticoid receptor ligand binding domain up to 10 uM by two hybrid assay.
For the compound `Cn1c(C#N)ccc1-c1ccc(C(=O)C(C)(C)C)cc1`, the inhibition entry was “inactive”.

Turning to `Cn1c(C#N)ccc1-c1ccc(/C(=N\O)C(C)(C)C)cc1`, the inhibition result is “inactive”.

Another assay deals with T3, Glucocorticoid receptor (Homo sapiens) (UniProt P04150).
T3 sequence (whole entry): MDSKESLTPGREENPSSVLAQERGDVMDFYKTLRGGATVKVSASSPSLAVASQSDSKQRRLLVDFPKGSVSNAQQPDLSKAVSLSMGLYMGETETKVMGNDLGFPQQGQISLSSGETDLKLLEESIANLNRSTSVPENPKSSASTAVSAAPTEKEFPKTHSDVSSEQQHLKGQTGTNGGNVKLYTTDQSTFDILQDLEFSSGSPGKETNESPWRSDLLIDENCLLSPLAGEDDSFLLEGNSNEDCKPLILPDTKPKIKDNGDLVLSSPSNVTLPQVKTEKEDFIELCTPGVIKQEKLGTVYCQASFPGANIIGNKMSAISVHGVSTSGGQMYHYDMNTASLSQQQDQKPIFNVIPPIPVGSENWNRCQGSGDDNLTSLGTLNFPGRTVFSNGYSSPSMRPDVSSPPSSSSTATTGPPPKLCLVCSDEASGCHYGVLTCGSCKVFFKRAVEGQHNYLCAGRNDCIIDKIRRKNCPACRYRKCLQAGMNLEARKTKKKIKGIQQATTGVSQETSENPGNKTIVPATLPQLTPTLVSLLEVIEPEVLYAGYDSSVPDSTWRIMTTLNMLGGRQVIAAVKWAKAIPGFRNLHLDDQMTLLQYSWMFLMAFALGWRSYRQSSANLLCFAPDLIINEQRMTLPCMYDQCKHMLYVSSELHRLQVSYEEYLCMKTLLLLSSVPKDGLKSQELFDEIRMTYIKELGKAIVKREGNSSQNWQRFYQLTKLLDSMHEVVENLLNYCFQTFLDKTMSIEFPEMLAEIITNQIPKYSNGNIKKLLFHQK
As to the kind of experiment: Antagonist activity at glucocorticoid receptor ligand binding domain up to 10 uM by two hybrid assay.
As for `Cn1c(C#N)ccc1-c1ccc(C(=O)C(C)(C)C)cc1`, the inhibition entry was “inactive”.

On to `Cn1c(C#N)ccc1-c1ccc(/C(=N\O)C(C)(C)C)cc1`, for which the inhibition result was “inactive”.

Another assay concerns the target T4, Estrogen receptor (Homo sapiens) (UniProt P03372).
T4 sequence (whole entry): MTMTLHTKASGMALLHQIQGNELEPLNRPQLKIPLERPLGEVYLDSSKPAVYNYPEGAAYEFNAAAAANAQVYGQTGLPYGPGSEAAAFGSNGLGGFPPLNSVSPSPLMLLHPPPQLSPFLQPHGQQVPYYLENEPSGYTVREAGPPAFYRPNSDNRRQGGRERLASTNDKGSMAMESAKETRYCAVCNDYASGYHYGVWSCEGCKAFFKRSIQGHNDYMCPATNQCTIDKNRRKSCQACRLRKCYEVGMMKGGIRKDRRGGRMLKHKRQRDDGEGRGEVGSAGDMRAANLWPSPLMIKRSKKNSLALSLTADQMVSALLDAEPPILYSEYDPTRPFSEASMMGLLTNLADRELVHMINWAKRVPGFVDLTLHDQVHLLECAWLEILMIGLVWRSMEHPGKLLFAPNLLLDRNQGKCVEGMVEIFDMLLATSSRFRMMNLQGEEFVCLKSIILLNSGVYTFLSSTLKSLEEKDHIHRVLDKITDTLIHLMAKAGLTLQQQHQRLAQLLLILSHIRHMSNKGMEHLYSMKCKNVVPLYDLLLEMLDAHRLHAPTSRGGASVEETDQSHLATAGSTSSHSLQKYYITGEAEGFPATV
Nature of the assay: Antagonist activity at estrogen receptor ligand binding domain up to 10 uM by two hybrid assay.
As for `Cn1c(C#N)ccc1-c1ccc(C(=O)C(C)(C)C)cc1`, the inhibition result is “inactive”.

As to `Cn1c(C#N)ccc1-c1ccc(/C(=N\O)C(C)(C)C)cc1`, the inhibition entry was “inactive”.

The next assay deals with T5, Progesterone receptor (Homo sapiens, UniProt P06401).
T5 sequence (P06401 whole entry): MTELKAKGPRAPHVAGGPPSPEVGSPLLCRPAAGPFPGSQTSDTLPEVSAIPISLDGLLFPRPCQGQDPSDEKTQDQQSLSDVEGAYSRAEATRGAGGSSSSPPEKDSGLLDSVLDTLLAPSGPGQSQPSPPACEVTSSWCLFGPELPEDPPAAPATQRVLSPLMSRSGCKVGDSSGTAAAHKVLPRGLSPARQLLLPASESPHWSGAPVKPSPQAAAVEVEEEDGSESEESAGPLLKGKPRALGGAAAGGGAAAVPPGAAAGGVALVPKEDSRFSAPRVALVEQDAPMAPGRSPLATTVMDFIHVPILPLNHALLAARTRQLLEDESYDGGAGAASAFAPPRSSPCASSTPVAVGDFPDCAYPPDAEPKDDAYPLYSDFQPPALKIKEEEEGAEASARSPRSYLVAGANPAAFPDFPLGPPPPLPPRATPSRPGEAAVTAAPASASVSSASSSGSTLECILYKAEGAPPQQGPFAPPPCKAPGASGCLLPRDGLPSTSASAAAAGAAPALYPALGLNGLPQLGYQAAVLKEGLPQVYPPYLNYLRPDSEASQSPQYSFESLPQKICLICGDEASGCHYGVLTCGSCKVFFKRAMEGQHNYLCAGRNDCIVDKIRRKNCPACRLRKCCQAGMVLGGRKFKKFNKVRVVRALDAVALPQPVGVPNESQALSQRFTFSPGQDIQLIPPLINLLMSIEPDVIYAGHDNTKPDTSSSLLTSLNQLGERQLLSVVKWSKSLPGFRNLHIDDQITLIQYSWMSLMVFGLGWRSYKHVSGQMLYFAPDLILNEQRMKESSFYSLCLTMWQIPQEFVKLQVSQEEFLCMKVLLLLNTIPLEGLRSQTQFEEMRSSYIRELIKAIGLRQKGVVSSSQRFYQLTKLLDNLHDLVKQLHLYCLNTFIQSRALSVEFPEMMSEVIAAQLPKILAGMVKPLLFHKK
As to the kind of experiment: Antagonist activity at progesterone receptor in human T47D cells assessed as inhibition of progesterone-induced alkaline phosphatase activity. In kind it is functional, cell-based.
As to `Cn1c(C#N)ccc1-c1ccc(C(O)c2cccs2)cc1` (stereo not drawn), the IC50 stood at 47 nM.

As to `Cn1c(C#N)ccc1-c1ccc2c(c1)CCC/C2=N/O`, the IC50 came out at 33 nM.

In the case of `C/C(=N/O)c1ccc(-c2ccc(C#N)n2C)cc1`, the IC50 came to 108 nM.

For the compound `Cn1c(C#N)ccc1-c1ccc(C(=O)C(C)(C)C)cc1`, the IC50 was found to be 3 nM.

`Cn1c(C#N)ccc1-c1ccc(/C(=N\O)C(C)(C)C)cc1`: the IC50 amounted to 3 nM.

On to `CC/C(=N/O)c1ccc(-c2ccc(C#N)n2C)cc1`, for which the half-maximal inhibitory concentration (IC50) amounted to 17 nM.

For `CC(=O)c1ccc(-c2ccc(C#N)n2C)cc1`, the IC50 was determined as 800 nM.

Turning to `CC(O)c1ccc(-c2ccc(C#N)n2C)cc1` (stereo not drawn), the IC50 was 36 nM.

Consider `Cn1c(C#N)ccc1-c1ccc2c(c1)CCCC2=O`, for which the half-inhibitory concentration (IC50) turned out to be 28 nM.

Take `Cn1c(C#N)ccc1-c1ccc2c(c1)CCCC2(C)O` (stereo not drawn): the IC50 was determined as 6 nM.

For the compound `CCC(O)c1ccc(-c2ccc(C#N)n2C)cc1` (stereo not drawn), the IC50 amounted to 27 nM.

In the case of `Cn1c(C#N)ccc1-c1ccc2c(c1)CCCC2O` (stereo not drawn), the concentration for half-maximal inhibition (IC50) worked out at 7 nM.

Turning to `Cn1c(C#N)ccc1-c1ccc2c(c1)CCCC2(O)c1ccccc1` (stereo not drawn), the IC50 stood at 35 nM.

For `CC#CC1(O)CCCc2cc(-c3ccc(C#N)n3C)ccc21` (stereo not drawn), the IC50 amounted to 10 nM.

As for `Cn1c(C#N)ccc1-c1ccc(C(O)c2ccccc2)cc1` (stereo not drawn), the IC50 is 118 nM.
